Source: patent US20030162777A1, “Novel N-acylated heterocycles” (Recordati S.A., priority 2001, published 2003)
pKi: −log10 of the molar value.

Each molecule was assayed against T1, human 5HT1A-serotonergic receptor (Homo sapiens, UniProt P08908) (assay: Radioligand binding to recombinant 5-HT1A receptors). Details: [3H]8-OH-DPAT 1 nM, membranes of HeLa cells with human 5-HT1A receptor; Ki from IC50 by Cheng & Prusoff; read-out: Binding affinity for 5HT1A receptors, Ki.
T1 construct: expressed in transfected cells; host or cells: HeLa (human cell line), stably transfected; cell membranes used
T1 sequence (P08908 1-422): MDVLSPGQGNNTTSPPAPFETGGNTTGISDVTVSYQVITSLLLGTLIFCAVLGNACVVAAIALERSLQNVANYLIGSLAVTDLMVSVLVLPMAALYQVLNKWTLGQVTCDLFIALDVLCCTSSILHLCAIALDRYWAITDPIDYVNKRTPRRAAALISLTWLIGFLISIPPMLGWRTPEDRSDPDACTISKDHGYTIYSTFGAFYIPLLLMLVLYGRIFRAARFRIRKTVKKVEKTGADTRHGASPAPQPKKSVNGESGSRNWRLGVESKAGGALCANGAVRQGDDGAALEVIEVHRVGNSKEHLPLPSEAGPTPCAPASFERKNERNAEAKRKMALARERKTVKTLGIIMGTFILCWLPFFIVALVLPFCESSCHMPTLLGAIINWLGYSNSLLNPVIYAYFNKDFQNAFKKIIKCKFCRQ
In short: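 Membranes from HeLa cells stably expressing human 5-HT1A incubated 30 min at 30 °C with 1 nM [3H]8-OH-DPAT and compound in 50 mM Tris-HCl pH 7.4, 2.5 mM MgCl2, […] pargyline. Nonspecific binding defined with 10 μM 5-HT; filtration readout, IC50 converted to Ki via Cheng–Prusoff.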

| Structure (SMILES) | pKi |
| --- | --- |
| CS(=O)(=O)N(CC(=O)N1c2ccccc2CCC1CN1CCN(c2cccc3[nH]ccc23)CC1)Cc1ccccc1 (centres unmarked) [Example 68A71, 1-[1-[2-(N-Benzyl-N-methanesulphonylamino)acetyl]-1,2,3,4-tetrahydroquinoline-2-ylmethyl]-4-(4-indolyl)piperazine] | 7.63 |
| O=C1CC[C@H](C(=O)N2c3ccccc3CCC2CN2CCN(c3cccc4[nH]ccc34)CC2)N1 (stereo partly drawn) [Example 68A73, 1-(4-Indolyl)-4-[1-[(2R)-5-oxopyrrolidine-2-ylcarbonyl]-1,2,3,4-tetrahydroquinoline-2-ylmethyl]piperazine] | 7.75 |
| O=C(Nc1ccc(F)cc1)N1c2ccccc2CCC1CN1CCN(c2cccc3[nH]ccc23)CC1 (centres unmarked) [Example 69A2, 1-[1-(4-Fluorophenylaminocarbonyl)-1,2,3,4-tetrahydroquinoline-2-ylmethyl)-4-(4-indolyl)piperazine] | 7.62 |
| CC(C)NC(=O)N1c2ccccc2CCC1CN1CCN(c2cccc3[nH]ccc23)CC1 (centres unmarked) [Example 69A7, 1-(4-Indolyl)-4-[1-(1-methylethylaminocarbonyl)-1,2,3,4-tetrahydroquinoline-2-ylmethyl]piperazine] | 7.44 |
| CNC(=S)N1c2ccccc2CCC1CN1CCN(c2cccc3[nH]ccc23)CC1 (centres unmarked) [Example 69A8, 1-(4-Indolyl)-4-[1-methylaminothiocarbonyl-1,2,3,4-tetrahydroquinoline-2-ylmethyl)piperazine] | 7.40 |
| O=C(NCc1ccccc1)N1c2ccccc2CCC1CN1CCN(c2cccc3[nH]ccc23)CC1 (centres unmarked) [Example 69A9, 1-(1-Benzylaminocarbonyl-1,2,3,4-tetrahydroquinoline-2-ylmethyl)-4-(4-indolyl)piperazine] | 7.59 |

The remaining molecules from weak to strong by pKi, led by results:

| pKi | Structure (SMILES) |
| --- | --- |
| 7.76 | Cc1cccc(NC(=O)N2c3ccccc3CCC2CN2CCN(c3cccc4[nH]ccc34)CC2)c1 (centres unmarked) [Example 69A1, 1-(4-Indolyl)-4-[1-(3-methylphenylaminocarbonyl)-1,2,3,4-tetrahydroquinoline-2-ylmethyl]piperazine] |
| 7.87 | O=C(NCCc1ccccc1)N1c2ccccc2CCC1CN1CCN(c2cccc3[nH]ccc23)CC1 (centres unmarked) [Example 69A10, 1(4-Indolyl)-4-[1-(2-phenylethylaminocarbonyl)-1,2,3,4-tetrahydroquinoline-2-ylmethyl]piperazine] |
| 7.98 | CCCCCNC(=O)N1c2ccccc2CCC1CN1CCN(c2cccc3[nH]ccc23)CC1 (centres unmarked) [Example 69A11, 1-(4-Indolyl)-4-(1-pentylaminocarbonyl-1,2,3,4-tetrahydroquinoline-2-ylmethyl]piperazine] |
| 8.03 | Cc1ccc(NC(=O)N2c3ccccc3CCC2CN2CCN(c3cccc4[nH]ccc34)CC2)cc1 (centres unmarked) [Example 69A3, 1-(4-Indolyl)-4-[1-(4-methylphenylaminocarbonyl)-1,2,3,4-tetrahydroquinoline-2-ylmethyl]piperazine] |
| 8.04 | O=C(c1ccc[nH]1)N1c2ccccc2CCC1CN1CCN(c2cccc3[nH]ccc23)CC1 (centres unmarked) [Example 68A, 1-(4-Indolyl)-4-[1-(2-pyrrolylcarbonyl)-1,2,3,4-tetrahydroquinoline-2-ylmethyl]piperazine] |
| 8.12 | O=C(c1ccc(O)cc1)N1c2ccccc2CCC1CN1CCN(c2cccc3[nH]ccc23)CC1 (centres unmarked) [Example 68A68, 1-[1-(4-Hydroxybenzoyl)-1,2,3,4-tetrahydroquinoline-2-ylmethyl]-4-(4-indolyl)piperazine] |
| 8.28 | Cc1ccc(C(=O)N2c3ccccc3CCC2CN2CCN(c3cccc4[nH]ccc34)CC2)cc1 (centres unmarked) [Example 68A70, 1-(4-Indolyl)-4-[1-(4-methylbenzoyl)-1,2,3,4-tetrahydroquinoline-2-ylmethyl]piperazine] |
| 8.38 | CCOc1ccc(C(=O)N2c3ccccc3CCC2CN2CCN(c3cccc4[nH]ccc34)CC2)cc1 (centres unmarked) [Example 68A69, 1-[1-(4-Ethoxybenzoyl)-1,2,3,4-tetrahydroquinoline-2-ylmethyl]-4-(4-indolyl)piperazine] |
